The values below come from ChEMBL document CHEMBL1914352, “Design, synthesis, docking, and biological evaluation of novel diazide-containing isoxazole- and pyrazole-based histone deacetylase probes” (J Med Chem, 2011).

Assay [1] concerns HepG2. Put plainly: cells. The class given is functional, cell-based. The settings on record: Homo sapiens, HepG2, 72 h.
Assay [2] concerns the target Histone deacetylase 3/Nuclear receptor corepressor 2 (HDAC3/NCoR2) (Homo sapiens, UniProt O15379). Put plainly: Inhibition of human recombinant HDAC3/NCoR2 using fluorophore-conjugated substrate Boc-L-Lys(Ac)-AMC. The class given is protein-complex assay.
In assay [3] the target is Histone deacetylase (Homo sapiens) (UniProt Q13547+O15379+Q9UBN7+Q92769+Q9UQL6+Q8WUI4+Q9BY41+Q96DB2+P56524+Q9UKV0+Q969S8). Put plainly: Inhibition of HDAC in retinoic acid-differentiated human SH-SY5Y cells assessed as increase in histone H4 acetylation at 1 uM after 24 hrs by Western blot analysis in presence of 100 uM LY294002. The class given is cell-based. A general note: In western blotting, separated proteins are transferred to a membrane and probed.

For another assay, the target named is T1, Histone deacetylase 7 (Homo sapiens, UniProt Q8WUI4).
T1 sequence (Q8WUI4 whole entry): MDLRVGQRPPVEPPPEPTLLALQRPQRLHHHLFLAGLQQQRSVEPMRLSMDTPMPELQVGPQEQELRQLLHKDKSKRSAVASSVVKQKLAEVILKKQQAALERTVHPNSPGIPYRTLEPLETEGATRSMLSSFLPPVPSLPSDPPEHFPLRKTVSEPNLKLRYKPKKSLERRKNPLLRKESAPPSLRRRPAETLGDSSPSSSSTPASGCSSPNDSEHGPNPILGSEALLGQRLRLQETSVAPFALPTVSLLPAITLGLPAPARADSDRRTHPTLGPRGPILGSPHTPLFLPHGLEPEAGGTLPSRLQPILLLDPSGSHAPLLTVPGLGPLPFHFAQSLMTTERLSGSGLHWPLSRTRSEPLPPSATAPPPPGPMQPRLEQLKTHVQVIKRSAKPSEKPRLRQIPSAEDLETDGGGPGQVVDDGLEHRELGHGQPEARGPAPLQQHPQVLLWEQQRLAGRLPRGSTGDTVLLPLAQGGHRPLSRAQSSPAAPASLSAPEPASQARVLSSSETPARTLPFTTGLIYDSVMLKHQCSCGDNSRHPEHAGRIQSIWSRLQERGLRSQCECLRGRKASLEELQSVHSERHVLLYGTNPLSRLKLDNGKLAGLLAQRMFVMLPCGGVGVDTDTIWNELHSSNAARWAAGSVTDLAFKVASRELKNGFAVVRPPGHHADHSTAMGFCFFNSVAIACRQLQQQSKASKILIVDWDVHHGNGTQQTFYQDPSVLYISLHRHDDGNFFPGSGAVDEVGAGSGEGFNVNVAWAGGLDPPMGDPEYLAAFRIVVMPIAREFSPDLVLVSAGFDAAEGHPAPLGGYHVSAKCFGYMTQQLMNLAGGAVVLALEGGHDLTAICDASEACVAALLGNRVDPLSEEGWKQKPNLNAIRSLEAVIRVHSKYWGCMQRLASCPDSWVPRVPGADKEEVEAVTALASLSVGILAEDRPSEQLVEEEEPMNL
Nature of the assay: Inhibition of human recombinant HDAC7 using fluorophore-conjugated substrate Boc-L-Lys(Ac)-AMC after 60 mins.

Assay [4] has as its system HepG2. Nature of the assay: cells. The settings on record: Homo sapiens, HepG2, 48 h. The class given is functional, cell-based.
A further assay deals with Histone deacetylase 2 (Homo sapiens, UniProt Q92769).
The target in another assay is Histone deacetylase 4 (Homo sapiens, UniProt P56524). Nature of the assay: Inhibition of human recombinant HDAC4 using fluorophore-conjugated substrate Boc-L-Lys(Ac)-AMC after 60 mins.
Chain of Histone deacetylase 4 (P56524 whole entry): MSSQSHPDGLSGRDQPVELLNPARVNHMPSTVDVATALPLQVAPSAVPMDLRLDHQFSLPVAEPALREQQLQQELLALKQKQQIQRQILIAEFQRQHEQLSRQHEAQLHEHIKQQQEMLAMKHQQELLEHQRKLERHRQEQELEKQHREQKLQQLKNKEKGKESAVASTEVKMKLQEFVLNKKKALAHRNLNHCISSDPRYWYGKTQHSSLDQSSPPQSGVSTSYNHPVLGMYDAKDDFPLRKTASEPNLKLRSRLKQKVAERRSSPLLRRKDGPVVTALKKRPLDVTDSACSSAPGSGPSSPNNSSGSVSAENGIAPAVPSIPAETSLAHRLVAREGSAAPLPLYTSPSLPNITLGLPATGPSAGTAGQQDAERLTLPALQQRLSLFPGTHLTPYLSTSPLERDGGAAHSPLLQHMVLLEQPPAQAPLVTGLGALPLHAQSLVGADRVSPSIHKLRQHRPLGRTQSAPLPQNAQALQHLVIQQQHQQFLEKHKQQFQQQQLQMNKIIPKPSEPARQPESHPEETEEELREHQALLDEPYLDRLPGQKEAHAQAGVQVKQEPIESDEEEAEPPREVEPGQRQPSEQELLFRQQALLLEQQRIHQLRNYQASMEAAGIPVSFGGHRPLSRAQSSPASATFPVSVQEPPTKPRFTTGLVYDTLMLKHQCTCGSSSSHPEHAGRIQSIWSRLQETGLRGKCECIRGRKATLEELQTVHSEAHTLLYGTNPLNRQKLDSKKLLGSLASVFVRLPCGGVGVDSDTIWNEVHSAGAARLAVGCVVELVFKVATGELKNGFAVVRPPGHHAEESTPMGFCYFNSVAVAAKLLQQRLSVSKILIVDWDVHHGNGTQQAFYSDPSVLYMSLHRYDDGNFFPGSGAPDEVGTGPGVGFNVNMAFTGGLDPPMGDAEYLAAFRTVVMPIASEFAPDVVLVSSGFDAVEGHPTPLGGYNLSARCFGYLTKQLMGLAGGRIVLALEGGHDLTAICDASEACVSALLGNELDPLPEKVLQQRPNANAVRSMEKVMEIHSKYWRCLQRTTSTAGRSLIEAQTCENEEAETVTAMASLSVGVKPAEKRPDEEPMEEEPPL
In assay [5] the target is T2, Polyamine deacetylase HDAC10 (Homo sapiens, UniProt Q969S8).
T2 sequence (Q969S8 whole entry): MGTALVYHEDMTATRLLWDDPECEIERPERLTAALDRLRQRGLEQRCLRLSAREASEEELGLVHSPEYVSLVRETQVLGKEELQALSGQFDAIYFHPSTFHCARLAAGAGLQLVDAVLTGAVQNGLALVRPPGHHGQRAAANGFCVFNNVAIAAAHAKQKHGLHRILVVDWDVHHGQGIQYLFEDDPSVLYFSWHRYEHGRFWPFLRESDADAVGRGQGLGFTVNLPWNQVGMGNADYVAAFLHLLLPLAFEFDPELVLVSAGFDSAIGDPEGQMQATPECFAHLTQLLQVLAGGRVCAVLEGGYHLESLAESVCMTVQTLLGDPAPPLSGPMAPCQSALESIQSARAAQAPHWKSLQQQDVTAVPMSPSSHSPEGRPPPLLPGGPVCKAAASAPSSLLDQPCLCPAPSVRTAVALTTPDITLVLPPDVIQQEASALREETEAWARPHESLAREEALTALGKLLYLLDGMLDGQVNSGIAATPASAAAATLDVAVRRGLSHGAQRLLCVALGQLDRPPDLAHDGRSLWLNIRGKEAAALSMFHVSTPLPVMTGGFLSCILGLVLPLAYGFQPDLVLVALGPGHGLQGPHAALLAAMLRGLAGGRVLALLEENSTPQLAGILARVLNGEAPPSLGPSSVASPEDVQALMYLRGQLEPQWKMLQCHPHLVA
Nature of the assay: Inhibition of human recombinant HDAC10 using fluorophore-conjugated substrate Boc-L-Lys(Ac)-AMC after 60 mins.

In assay [6] the test system is HeLa. Nature of the assay: cells. The class given is functional, cell-based. The conditions noted are these: Homo sapiens, 48 h.
The test system of assay [7] is SH-SY5Y. Put plainly: cells. The class given is functional, cell-based. The conditions noted are these: Homo sapiens, 72 h.
Assay [8] relates to HepG2. Put plainly: cells. The class given is functional, cell-based. The conditions noted are these: Homo sapiens, HepG2, 24 h.
For the next assay, the target named is Histone deacetylase 5 (Homo sapiens, UniProt Q9UQL6). Put plainly: Inhibition of human recombinant HDAC5 using fluorophore-conjugated substrate Boc-L-Lys(Ac)-AMC after 60 mins.
Chain of Histone deacetylase 5 (Q9UQL6 whole entry): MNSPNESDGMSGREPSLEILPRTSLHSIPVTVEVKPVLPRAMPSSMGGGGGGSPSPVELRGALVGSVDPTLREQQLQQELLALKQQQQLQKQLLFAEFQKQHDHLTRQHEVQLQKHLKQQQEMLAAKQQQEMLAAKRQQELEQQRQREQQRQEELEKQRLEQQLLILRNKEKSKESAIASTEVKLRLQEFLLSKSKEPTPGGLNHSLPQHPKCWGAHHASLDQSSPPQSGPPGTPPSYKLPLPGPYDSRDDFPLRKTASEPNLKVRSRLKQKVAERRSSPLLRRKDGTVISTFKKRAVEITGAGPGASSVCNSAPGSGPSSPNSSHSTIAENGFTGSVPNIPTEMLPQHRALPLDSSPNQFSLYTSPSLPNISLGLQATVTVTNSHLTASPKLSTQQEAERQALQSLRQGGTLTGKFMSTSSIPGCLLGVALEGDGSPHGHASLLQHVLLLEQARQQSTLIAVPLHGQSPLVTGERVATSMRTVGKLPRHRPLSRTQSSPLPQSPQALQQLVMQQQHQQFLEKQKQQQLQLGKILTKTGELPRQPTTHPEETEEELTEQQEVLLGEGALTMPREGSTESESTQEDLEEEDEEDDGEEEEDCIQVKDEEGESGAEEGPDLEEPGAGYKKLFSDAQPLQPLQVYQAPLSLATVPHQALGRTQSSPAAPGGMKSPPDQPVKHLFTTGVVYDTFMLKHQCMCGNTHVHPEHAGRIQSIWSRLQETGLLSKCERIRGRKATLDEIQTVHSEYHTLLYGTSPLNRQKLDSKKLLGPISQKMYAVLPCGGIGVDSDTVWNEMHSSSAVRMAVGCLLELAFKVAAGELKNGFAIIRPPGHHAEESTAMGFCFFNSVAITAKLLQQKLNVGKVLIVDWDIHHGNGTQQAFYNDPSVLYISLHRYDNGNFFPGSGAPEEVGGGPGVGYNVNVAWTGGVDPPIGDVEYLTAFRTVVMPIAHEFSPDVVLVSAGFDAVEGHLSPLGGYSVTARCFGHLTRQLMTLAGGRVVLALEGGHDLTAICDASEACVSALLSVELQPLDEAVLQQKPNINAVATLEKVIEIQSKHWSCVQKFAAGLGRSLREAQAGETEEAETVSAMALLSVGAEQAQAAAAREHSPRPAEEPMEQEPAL
Assay [9] concerns HeLa. Put plainly: cells. The class given is functional, cell-based. The conditions noted are these: Homo sapiens, 24 h.
Assay [10] concerns SH-SY5Y. Put plainly: cells. The class given is functional, cell-based. The conditions noted are these: Homo sapiens, 24 h.
Another assay concerns the target Histone deacetylase 1 (Homo sapiens, UniProt Q13547). Put plainly: Inhibition of human recombinant HDAC1 using fluorophore-conjugated substrate Boc-L-Lys(Ac)-AMC after 60 mins.
A further assay addresses Histone deacetylase 9 (Homo sapiens, UniProt Q9UKV0). Nature of the assay: Inhibition of human recombinant HDAC9 using fluorophore-conjugated substrate Boc-L-Lys(Ac)-AMC after 60 mins.

Activity calls are given as the source filed them. No cut-off for these calls is given here. Bounds are passed on as bounds.

Chain of Histone deacetylase 3/Nuclear receptor corepressor 2 (HDAC3/NCoR2) (O15379 whole entry): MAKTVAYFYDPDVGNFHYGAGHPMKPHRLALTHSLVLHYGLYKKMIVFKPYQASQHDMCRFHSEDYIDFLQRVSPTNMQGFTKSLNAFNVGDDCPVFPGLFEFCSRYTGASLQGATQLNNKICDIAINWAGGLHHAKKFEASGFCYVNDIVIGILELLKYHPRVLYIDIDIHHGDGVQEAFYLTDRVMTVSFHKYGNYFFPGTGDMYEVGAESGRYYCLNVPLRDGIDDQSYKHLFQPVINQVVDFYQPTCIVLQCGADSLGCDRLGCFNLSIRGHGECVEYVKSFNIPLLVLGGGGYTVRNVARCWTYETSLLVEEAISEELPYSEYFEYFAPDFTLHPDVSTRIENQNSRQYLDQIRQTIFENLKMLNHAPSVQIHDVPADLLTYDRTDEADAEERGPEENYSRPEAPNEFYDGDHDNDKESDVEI
Chain of Histone deacetylase 3/Nuclear receptor corepressor 2 (HDAC3/NCoR2) (Q9Y618 whole entry, further chain): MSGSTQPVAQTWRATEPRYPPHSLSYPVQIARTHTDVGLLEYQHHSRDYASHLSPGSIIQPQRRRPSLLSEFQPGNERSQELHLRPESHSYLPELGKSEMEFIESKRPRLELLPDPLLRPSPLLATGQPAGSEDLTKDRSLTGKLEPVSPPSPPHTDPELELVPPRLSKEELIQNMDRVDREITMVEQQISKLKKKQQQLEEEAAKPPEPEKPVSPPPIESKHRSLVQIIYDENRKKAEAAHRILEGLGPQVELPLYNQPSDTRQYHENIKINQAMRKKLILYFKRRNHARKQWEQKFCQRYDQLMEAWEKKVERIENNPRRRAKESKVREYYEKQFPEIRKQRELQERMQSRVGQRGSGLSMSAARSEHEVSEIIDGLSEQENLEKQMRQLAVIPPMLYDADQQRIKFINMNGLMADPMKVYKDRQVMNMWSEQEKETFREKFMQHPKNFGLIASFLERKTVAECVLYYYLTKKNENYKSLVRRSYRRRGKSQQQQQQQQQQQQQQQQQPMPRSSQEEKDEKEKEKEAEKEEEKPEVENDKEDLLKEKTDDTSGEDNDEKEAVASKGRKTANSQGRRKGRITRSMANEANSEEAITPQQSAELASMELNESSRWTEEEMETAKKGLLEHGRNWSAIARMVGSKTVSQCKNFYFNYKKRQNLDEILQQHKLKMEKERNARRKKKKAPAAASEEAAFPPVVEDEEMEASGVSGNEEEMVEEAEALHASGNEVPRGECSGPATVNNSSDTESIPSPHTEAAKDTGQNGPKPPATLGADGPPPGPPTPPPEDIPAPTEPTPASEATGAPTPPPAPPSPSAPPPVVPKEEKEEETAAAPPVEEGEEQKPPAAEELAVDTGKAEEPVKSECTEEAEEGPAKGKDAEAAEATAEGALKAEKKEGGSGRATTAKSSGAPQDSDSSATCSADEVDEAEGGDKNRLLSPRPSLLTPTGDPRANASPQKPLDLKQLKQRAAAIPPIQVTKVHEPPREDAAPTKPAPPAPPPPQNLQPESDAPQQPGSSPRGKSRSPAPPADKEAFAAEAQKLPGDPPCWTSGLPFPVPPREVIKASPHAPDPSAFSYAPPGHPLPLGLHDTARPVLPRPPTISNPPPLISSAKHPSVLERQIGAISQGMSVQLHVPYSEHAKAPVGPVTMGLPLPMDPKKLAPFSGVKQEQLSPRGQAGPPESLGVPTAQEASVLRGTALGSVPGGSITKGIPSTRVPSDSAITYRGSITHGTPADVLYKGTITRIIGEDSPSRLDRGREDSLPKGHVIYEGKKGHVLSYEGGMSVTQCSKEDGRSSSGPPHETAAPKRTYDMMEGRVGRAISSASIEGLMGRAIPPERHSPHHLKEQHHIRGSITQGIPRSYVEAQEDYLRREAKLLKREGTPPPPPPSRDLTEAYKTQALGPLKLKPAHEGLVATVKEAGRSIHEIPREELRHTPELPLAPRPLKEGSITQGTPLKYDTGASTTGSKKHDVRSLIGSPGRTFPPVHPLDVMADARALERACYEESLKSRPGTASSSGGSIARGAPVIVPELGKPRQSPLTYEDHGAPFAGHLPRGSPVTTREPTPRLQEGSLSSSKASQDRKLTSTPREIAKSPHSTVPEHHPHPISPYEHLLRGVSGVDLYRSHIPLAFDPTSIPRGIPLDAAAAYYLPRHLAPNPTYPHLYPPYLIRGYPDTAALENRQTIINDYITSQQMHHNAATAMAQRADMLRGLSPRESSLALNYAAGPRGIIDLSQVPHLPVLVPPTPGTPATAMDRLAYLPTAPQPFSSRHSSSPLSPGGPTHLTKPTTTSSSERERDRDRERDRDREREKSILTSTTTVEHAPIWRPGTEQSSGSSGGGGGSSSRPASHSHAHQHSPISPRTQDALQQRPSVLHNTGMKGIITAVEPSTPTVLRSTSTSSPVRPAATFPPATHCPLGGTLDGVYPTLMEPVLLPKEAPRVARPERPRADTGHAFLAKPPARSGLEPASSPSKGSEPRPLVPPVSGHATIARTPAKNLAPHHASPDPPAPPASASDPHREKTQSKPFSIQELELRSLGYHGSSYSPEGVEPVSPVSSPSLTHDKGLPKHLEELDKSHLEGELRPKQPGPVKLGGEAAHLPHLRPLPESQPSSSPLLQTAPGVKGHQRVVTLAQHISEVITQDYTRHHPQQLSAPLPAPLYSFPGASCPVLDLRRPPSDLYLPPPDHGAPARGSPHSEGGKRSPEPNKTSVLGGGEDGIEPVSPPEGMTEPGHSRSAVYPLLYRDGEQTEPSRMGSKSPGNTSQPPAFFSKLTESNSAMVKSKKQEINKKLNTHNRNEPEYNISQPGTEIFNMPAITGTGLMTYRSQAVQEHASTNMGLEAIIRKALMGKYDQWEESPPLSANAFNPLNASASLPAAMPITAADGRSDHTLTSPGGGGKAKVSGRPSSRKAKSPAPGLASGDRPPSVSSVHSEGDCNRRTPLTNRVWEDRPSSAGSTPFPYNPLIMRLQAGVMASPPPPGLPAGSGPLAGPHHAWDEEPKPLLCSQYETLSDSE

One may read the EC50 as the concentration at which the effect is half-maximal. A low value points to higher potency in that assay. The IC50 is the midpoint of a concentration-inhibition curve. Turning to `[N-]=[N+]=NCc1cc(N=[N+]=[N-])cc(C(=O)Nc2ccc(-c3cc(C(=O)NCCCCCCC(=O)NO)no3)cc2)c1`, the EC50 in the assay with HepG2 [1] is 4900 nM; in the assay on HepG2 [4], 11500 nM; with HeLa [6], 10700 nM; in the assay on SH-SY5Y [7], 23000 nM; in the assay on HepG2 [8], > 50000 nM; with HeLa [9], 26500 nM. Further, the EC50 in the assay with SH-SY5Y [10] is > 50000 nM. The IC50 in assay [2] is 45 nM; on Histone deacetylase 7, 2230 nM; against Histone deacetylase 2 it was 780 nM; at Histone deacetylase 4 it was 432 nM; in assay [5], 776 nM; at Histone deacetylase 5, 932 nM. Further, the IC50 came to 82.2 nM at Histone deacetylase 1 and 37.8 nM on Histone deacetylase 9. For the same compound, the inhibition result in assay [3] was “Active”.

For `[N-]=[N+]=NCc1cc(Cn2cc(NC(=O)CCCCCCC(=O)NO)cn2)cc(N=[N+]=[N-])c1`, the EC50 in the assay with HepG2 [1] was 13400 nM; with HepG2 [4], 24300 nM; in the assay with HeLa [6], 23700 nM; with SH-SY5Y [7] it was 20800 nM; in the assay on HepG2 [8], > 50000 nM; with HeLa [9], 30600 nM. In the assay with SH-SY5Y [10], the EC50 is > 50000 nM. The half-maximal inhibitory concentration (IC50) was determined as 128 nM in assay [2]; 4510 nM at Histone deacetylase 7; 1000 nM on Histone deacetylase 2; 379 nM at Histone deacetylase 4; 140 nM in assay [5]; 892 nM at Histone deacetylase 5. Moreover, the half-inhibitory concentration (IC50) at Histone deacetylase 1 came to 99.1 nM; at Histone deacetylase 9 it was 704 nM. The inhibition result in [3] is “Active”.
